Measured values taken from patent publication US20240082286A1, “COMBINATION THERAPIES FOR TREATMENT OF T-CELL LYMPHOMAS” (Otsuka Pharmaceutical Co., Ltd., priority 2022, published 2024).

How the values were obtained:
[1] = tested on: H9 cells; assay: IFNγ release, electrochemiluminescence immunoassay (Meso Scale Discovery); assay type: cell-based, human; conditions: decitabine alone 0.001-10 μM for 48 hours; FIG. 4
Method: Human T-cell lymphoma (H9) cell line was treated with decitabine (DAC) (0.001, 0.003, 0.01, 0.03, 0.1, 0.3, 1, 3 and 10 μM) for 48 hours, and the release of IFNγ was measured an electrochemiluminescence immunoassay (Meso Scale Discovery). […] Thus, the treatment by decitabine will potentially result in improved response rate to the tolinapant treatment.

[2] = tested on: RIPK3; assay: RIPK3 expression by western blot after decitabine treatment, Karpas-299 cells; assay type: cell-based, human; conditions: 0.01, 0.1, 1 μM decitabine for 4 days, FIG. 2
[3] = tested on: RIPK3 gene promoter; assay: Methylation status of RIPK3 gene by pyrosequencing (EpigenDX); assay type: cell-based, human; conditions: H9, Karpas-299, Sup-M2, Sup-T1 cell lines; 0.01, 0.1, 1 μM decitabine for 4 days; FIG. 3 B and C
Method: The DNA of human H9, Karpas-299, Sup-M2 (from DSMZ), and Sup-T1 (from ECACC) cell lines were sequenced to identify methylation status of the RIPK3 gene by pyrosequencing (EpigenDX). […] These cell lines were treated with 0.01, 0.1, and 1 μM decitabine (DAC) for 4 days, and DNA of the cells were sequenced to identify methylation status of the RIPK3 gene by pyrosequencing (EpigenDX).

[4] = tested on: RIPK3; assay: RIPK3 western blotting of KARPAS-299 xenograft cell lysates; assay type: in vivo, mouse; conditions: five days treatment, FIG. 13
[5] = tested on: KARPAS-299 xenograft mouse model; assay: Gene expression changes in KARPAS-299 xenografts; assay type: in vivo; conditions: treated for five days, FIG. 12
Method: KARPAS-299 xenograft mouse model was prepared by injecting KARPAS-299 cells. The mice bearing the KARPAS-299 xenografts were treated with decitabine (DAC) and/or tolinapant for five days. The tumor cells were collected and analyzed for gene expression changes (FIG. 12).

[6] = tested on: RIPK3; assay: RIPK3 expression by western blot after decitabine treatment, CT26 cells; assay type: cell-based, mouse; conditions: 0.01, 0.1, 1 μM decitabine for 2 days, FIG. 2
Method: Two types of mouse cell lines (BW5147.G.1.4, a T cell lymphoma from DSMZ (Braunschweig, Germany) and CT26) were treated with 0.01, 0.1, 1 μM or no decitabine (DAC) for 2 days.

[7] = tested on: DNMT1; assay: Western blotting of BW5147.G.1.4 lysates, DNMT1; assay type: cell-based, mouse; conditions: 48 hours, as the concentration of decitabine increased, FIG. 8
Method: After 48 hours, the cell was lysated and interferon signaling and PD markers were analyzed by Western blotting, as shown in FIG. 8.

[8] = tested on: LINE-1; assay: Methylation level of LINE-1 after decitabine treatment; assay type: cell-based, human; conditions: 0.01, 0.1, 1 μM decitabine for 4 days; FIG. 3 D
[9] = tested on: clAP1; assay: Western blotting of BW5147.G.1.4 lysates, clAP1; assay type: cell-based, mouse; conditions: 48 hours, when tolinapant was added to decitabine, FIG. 8
Method: After 48 hours, the cell was lysated and interferon signaling and PD markers were analyzed by Western blotting, as shown in FIG. 8. From the western blot, it was confirmed that the expression of DNMT1 was reduced as the concentration of decitabine increased, and the expression of clAP1 was suppressed when tolinapant was added.

[10] = tested on: CT26 cells; assay: Lytic cell death by real-time microscopy (IncuCyte) in CT26 control and RIPK3 re-expressed CT26 cells; assay type: cell-based, mouse; conditions: 1 μM tolinapant; RIPK3 re-expressed CT26 cells versus CT26 control cells; FIG. 1B
Method: CRISPR activation (CRISPRa) was used to re-express RIPK3 in the CT26 line (from ATCC) (FIG. 1A). […] The lytic cell death upon treatment of tolinapant was measured for the CT26 control cells and the RIPK3 re-expressed CT26 cells, by real-time microscopy (IncuCyte) assays (FIG. 1B).

| SMILES | IFNγ released from H9 cells [1] | RIPK3 expression [2] | methylation of RIPK3 gene promoter [3] | RIPK3 re-expression by western blotting [4] | gene expression changes in tumor cells [5] | RIPK3 expression [6] | expression of DNMT1 [7] | methylation of LINE-1 [8] | expression of clAP1 [9] | lytic cell death upon treatment of tolinapant [10] |
| --- | --- | --- | --- | --- | --- | --- | --- | --- | --- | --- |
| Nc1ncn([C@H]2C[C@H](O)[C@@H](CO)O2)c(=O)n1 [decitabine, 5-aza-2′-deoxycytidine] | increased | RIPK3 expression was detected | demethylation of RIPK3 gene promoter | re-expression of RIPK3 was also confirmed | upregulation of interferons, and other cytokines/chemokines and cancer testis antigens | RIPK3 expression was detected | reduced | demethylation of LINE-1 |  |  |
| C[C@@H]1CN(CC(=O)N2CC(C)(C)c3nc(CO)c(Cc4ccc(F)cc4)cc32)[C@@H](CN2CCOC[C@H]2C)CN1 [tolinapant, 1-(6-(4-fluorobenzyl)-5-(hydroxymethyl)-3,3-dimethyl-2,3-dihydro-1H-pyrrolo[3,2-b]pyridin-1-yl)-2-((2R,5R)-5-methyl-2-(((R)-3-methylmorpholino)methyl)piperazin-1-yl)ethan-1-one] |  |  |  |  |  |  |  |  | suppressed | higher lytic cell death |
